Reference: patent US10556945B2, “Antagonist antibodies directed against calcitonin gene-related peptide and methods using same” (Teva Pharmaceuticals International GmbH, priority 2014, dated 2020)
Marks after values point to notes of the source that are not given here. Values belong to the molecule of their own block, whether it stands above or below them.

Legend:
[1] = test system: middle meningeal artery (MMA) dilation evoked by electrical field stimulation; assay: Dural artery (closed cranial window) assay; format: in vivo, rat
Description: Closed Cranial Window Model: The purpose of this experiment was to determine the acute effect of anti-CGRP antagonist antibodies and compare it with the acute effect of the CGRP receptor antagonist BIBN4096BS. Experiments were carried out as previously described (Williamson et al., Cephalalgia 17(4):518-24 (1997)) with the following modifications. Sprague Dawley rats (300-400 g) were anesthetized with 70 mg/kg i.p. pentobarbital. Anesthesia was maintained with 20 mg/kg/hr i.v. pentobarbital. Rats were cannulated through the jugular vein for delivery of all drugs. Blood pressure was monitored with a probe (mikro-tip catheter, Millar Instruments) threaded through the femoral artery into the abdominal aorta. The rats were tracheotomized and breathing rate was maintained at 75 breaths per minute at a volume of 3.5 mL. After fixating the head in a stereotactic instrument and removing the scalp, a 2×6 mm window in the left parietal area just lateral to the sagittal suture was made by thinning the bone with a dental drill. Using a micromanipulator, a platinum bipolar electrode was lowered onto the surface and covered with heavy mineral oil. Lateral to the electrode window another window of 5×6 mm was created and filled with heavy mineral oil through which the diameter of a branch of the middle meningeal artery (MMA) was continuously monitored with a CCD camera and a video dimension analyzer (Living Systems). The rats were rested for no less than 45 minutes after the preparation. A baseline response to electrical stimulation was established (15 V, 10 hz, 0.5 ms pulses, 30 seconds) and then rats were dosed i.v. with experimental compound (10 mg/kg mu7E9, 300 μg/kg BIBN4096BS or PBS 0.01% Tween 20). Additional electrical stimulations were done at 5 (BIBN4096BS), 30, 60, 90 and 120 minutes after dosing. All data was recorded using chart software (ADInstruments).
The purpose of this experiment was to determine if the anti CGRP antibody could still block electrically stimulated MMA dilation 7 days after dosing. Preparation of the rats was identical to the above described acute experiment (Example 6) with the following exceptions. […] It was impossible to establish a baseline dilation response to electrical stimulation prior to dosing as in the acute experiment so the antibody groups were compared to dilation of the MMA in a vehicle (PBS, 0.01% Tween 20) dosed control group. After the rats were allowed to rest for no less than 45 minutes the dura was electrically stimulated at 30 minute intervals. Stimulations were at 2.5V, 5V, 10V, 15V and 20V, all at 10 Hz, 0.5 ms pulses for 30 seconds.

[2] = test system: CGRP activity (skin blood flow after saphenous nerve stimulation); assay: Skin vasodilatation induced by stimulation of rat saphenous nerve; format: in vivo; conditions: for blood flow increase stimulated by electronic pulses on saphenous nerve: compared to vehicle
Description: To test antagonist activity of anti-CGRP antibodies, effect of the antibodies on skin vasodilatation by stimulation of rat saphenous nerve was tested using a rat model described previously. Escott et al., Br. J. Pharmacol. 110:772-776, 1993. In this rat model, electrical stimulation of saphenous nerve induces release of CGRP from nerve endings, resulting in an increase in skin blood flow. Blood flow in the foot skin of male Sprague Dawley rats (170-300 g, from Charles River Hollister) was measured after saphenous nerve stimulation. Rats were maintained under anesthesia with 2% isoflurane. Bretylium tosylate (30 mg/kg, administered i.v.) was given at the beginning of the experiment to minimize vasoconstriction due to the concomitant stimulation of sympathetic fibers of the saphenous nerve. Body temperature was maintained at 37° C. by the use of a rectal probe thermostatically connected to a temperature controlled heating pad. Compounds including antibodies, positive control (CGRP 8-37), and vehicle (PBS, 0.01% Tween 20) were given intravenously through the right femoral vein, except for the experiment shown in FIG. 3, the test compound and the control were injected through tail vein, and for experiments shown in FIGS. 2A and 2B, antibodies 4901 and 7D11 were injected intraperitoneally (IP). Positive control compound CGRP 8-37 (vasodilatation antagonist), due to its short half-life, was given 3-5 min before nerve stimulation at 400 nmol/kg (200 μl). Tan et al., Clin. Sci. 89:656-73, 1995. The antibodies were given in different doses (1 mg/kg, 2.5 mg/kg, 5 mg/kg, 10 mg/kg, and 25 mg/kg).
For experiments shown in FIGS. 2A and 2B, antibody 4901 (25 mg/kg), antibody 7D11 (25 mg/kg), or vehicle control (PBS with 0.01% Tween 20) was administered intraperitoneally (IP) 72 hours before the electrical pulse stimulation. For experiment shown in FIG. 3, antibody 4901 (1 mg/kg, 2.5 mg/kg, 5 mg/kg, or 25 mg/kg) or vehicle control (PBS with 0.01% Tween 20) was administered intravenously 24 hours before the electrical pulse stimulation. After administration of the antibodies or vehicle control, the saphenous nerve of the right hindlimb was exposed surgically, cut proximally and covered with plastic wrap to prevent drying. A laser Doppler probe was placed over the medio-dorsal side of the hindpaw skin, which is the region innervated by the saphenous nerve. Skin blood flow, measured as blood cell flux, was monitored with a laser Doppler flow meter. When a stable base-line flux (less than 5% variation) was established for at least 5 min, the nerve was placed over platinum bipolar electrodes and electrically stimulated with 60 pulses (2 Hz, 10 V, 1 ms, for 30 sec) and then again 20 minutes later. Cumulative change in skin blood flow was estimated by the area under the flux-time curve (AUC, which is equal to change in flux multiplied by change in time) for each flux response to electrical pulse stimulation. The average of the blood flow response to the two stimulations was taken. Animals were kept under anesthesia for a period of one to three hours.
For experiments shown in FIGS. 4A and 4B, saphenous nerve was exposed surgically before antibody administration. The saphenous nerve of the right hindlimb was exposed surgically, cut proximally and covered with plastic wrap to prevent drying. […] Skin blood flow, measured as blood cell flux, was monitored with a laser Doppler flow meter. […]

chronic migraine = assay: Clinical study of antibody G1 in chronic migraine
rat α-CGRP = target: T1, rat α-CGRP (Rattus norvegicus, UniProt P01256); assay: Biacore affinity of antibody G1 and variant Fabs to rat α-CGRP; format: binding; conditions: 37° C.; Fab; screening mode unless underlined
T1 construct: 1-37 of rat α-CGRP (WT); purchased GenScript Corporation or Global Peptide Services (custom order); host or cells: synthetic peptide
T1 sequence (P01256 83-119 limits assumed): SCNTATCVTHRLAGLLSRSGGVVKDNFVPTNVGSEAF
Description: Biacore assay for affinity determination. […] All Biacore assays were conducted in HBS-EP running buffer (10 mM HEPES pH 7.4, 150 mM NaCl, 3 mM EDTA, 0.005% v/v polysorbate P20). CGRP surfaces were prepared by diluting the N-biotinylated CGRP to a concentration of less than 0.001 mg/mL into HBS-EP buffer and injecting it across the SA sensor chip using variable contact times. Low capacity surfaces, corresponding to capture levels <50 response units (RU) were used for high-resolution kinetic studies, whereas high capacity surfaces (about 800 RU of captured CGRP) were used for concentration studies, screening, and solution affinity determinations. […] Samples were typically injected for 1 minute at 100 μL/min and dissociation times of at least 10 minutes were allowed. After each binding cycle, surfaces were regenerated with 25 mM NaOH in 25% v/v ethanol, which was tolerated over hundreds of cycles. […]
High-resolution analysis of binding interactions with extremely slow offrates. […] The association rate constant (kon) was determined by injecting a 2-fold titration series (in duplicate) spanning 550 nM-1 nM for 30 sec at 100 uL/min and allowing only a 30 sec dissociation phase. The dissociation rate constant (koff) was determined by injecting three concentrations (high, medium, and low) of the same titration series in duplicate for 30 sec and allowing a 2-hour dissociation phase. […]

[3] = 900 mg group (n = 85), Change from Baseline to Month 1
[4] = 900 mg group (n = 85), Change from Baseline to Month 2
[5] = 900 mg group (n = 85), Change from Baseline to Month 3
[6] = 675/225 mg group (n = 87), Change from Baseline to Month 1
[7] = 675/225 mg group (n = 87), Change from Baseline to Month 2
[8] = 675/225 mg group (n = 87), Change from Baseline to Month 3

Molecule: NCCCC[C@H](NC(=O)[C@@H](Cc1cc(Br)c(O)c(Br)c1)NC(=O)N1CCC(N2Cc3ccccc3NC2=O)CC1)C(=O)N1CCN(c2ccncc2)CC1 [BIBN4096BS]
- time after dosing within which MMA dilation is blocked ([1]; 300 μg/kg i.v.): ≤ 5 min
- time by which the effect has completely disappeared ([1]; 300 μg/kg i.v.): ≤ 90 min
- MMA dilation evoked by electrical field stimulation ([1]; 300 μg/kg i.v., acute): blocks

- EC50 at 24 hours (dose required for 50% maximal effect) ([2]; i.v. 24 hours before stimulation, curve fit): 1.3 mg/kg
- EC50 at 7 days (dose required for 50% maximal effect) ([2]; i.v. 7 days before stimulation, curve fit): 0.8 mg/kg
Molecule: G1: anti-CGRP antagonist antibody produced by expression vectors ATCC PTA-6867 and PTA-6866; VH SEQ ID NO:1, VL SEQ ID NO:2; modified human IgG2 [Clone G1]
- blood flow increase stimulated by electronic pulses on saphenous nerve ([2]; 1 mg/kg i.v., stimulation at 90 min): significantly inhibited
- blood flow increase stimulated by electronic pulses on saphenous nerve ([2]; 10 mg/kg i.v., stimulation at 90 and 120 minutes): significantly inhibited
- blood flow increases in the dorso-medial hindpaw skin evoked by saphenous nerve stimulation ([2]; 10 mg/kg or 3 mg/kg i.v., 24 hours or 7 days prior to stimulation, vs vehicle): significantly inhibited
- MMA dilation evoked by electrical stimulation ([1]; 10 mg/kg and 3 mg/kg i.v., 7 days prior, 10 to 20 volts, vs vehicle): significantly blocked
- Days using acute medications, change from baseline, mean (SE) (chronic migraine; [3]): −5.4 (0.7)** Days
- Headache hours, change from baseline, mean (SE) (chronic migraine; [3]): −56.8 (7.3)^+ hours
- M/S Headache Days (days with moderate to severe headaches), change from baseline, mean (SE) (chronic migraine; [3]): −5.7 (0.6)^+ Days
- Migraine Days, change from baseline, mean (SE) (chronic migraine; [3]): −6.3 (0.7)^+ Days
- Days using acute medications, change from baseline, mean (SE) (chronic migraine; [4]): −5.8 (0.7) Days
- Headache hours, change from baseline, mean (SE) (chronic migraine; [4]): −66.2 (8.1)^+ hours
- M/S Headache Days (days with moderate to severe headaches), change from baseline, mean (SE) (chronic migraine; [4]): −5.9 (0.6) Days
- Migraine Days, change from baseline, mean (SE) (chronic migraine; [4]): −6.7 (0.7)^ Days
- Headache hours, change from baseline, mean (SE) (chronic migraine; [5]): −67.5 (8.6)** hours
- Migraine Days, change from baseline, mean (SE) (chronic migraine; [5]): −7.1 (0.8)* Days
- Subjects with >50% Decrease in M/S Headache days (chronic migraine; 900 mg group, Month 1): 47 (55%)^+ N (%)
- Subjects with >75% Decrease in M/S Headache days (chronic migraine; 900 mg group, Month 1): 28 (33%)^+ N (%)
- Subjects with >50% Decrease in M/S Headache days (chronic migraine; 900 mg group, Month 2): 47 (55%)* N (%)
- Subjects with >75% Decrease in M/S Headache days (chronic migraine; 900 mg group, Month 2): 26 (31%) N (%)
- Subjects with >50% Decrease in M/S Headache days (chronic migraine; 900 mg group, Month 3): 47 (55%)^+ N (%)
- Subjects with >75% Decrease in M/S Headache days (chronic migraine; 900 mg group, Month 3): 27 (32%)* N (%)
- Days using acute medications, change from baseline, mean (SE) (chronic migraine; [6]): −5.3 (0.7)* Days
- Headache hours, change from baseline, mean (SE) (chronic migraine; [6]): −44.1 (7.3)** hours
- M/S Headache Days (days with moderate to severe headaches), change from baseline, mean (SE) (chronic migraine; [6]): −4.9 (0.6)** Days
- Days using acute medications, change from baseline, mean (SE) (chronic migraine; [7]): −6.6 (0.7)* Days
- Headache hours, change from baseline, mean (SE) (chronic migraine; [7]): −58.3 (8.1)* hours
- M/S Headache Days (days with moderate to severe headaches), change from baseline, mean (SE) (chronic migraine; [7]): −5.8 (0.6) Days
- Migraine Days, change from baseline, mean (SE) (chronic migraine; [7]): −6.6 (0.7) Days
- Days using acute medications, change from baseline, mean (SE) (chronic migraine; [8]): −6.6 (0.7)* Days
- Headache hours, change from baseline, mean (SE) (chronic migraine; [8]): −59.8 (8.6)* hours
- M/S Headache Days (days with moderate to severe headaches), change from baseline, mean (SE) (chronic migraine; [8]): −6.0 (0.7)* Days
- Migraine Days, change from baseline, mean (SE) (chronic migraine; [8]): −6.8 (0.8) Days
- Subjects with >50% Decrease in M/S Headache days (chronic migraine; 675/225 mg group, Month 1): 36 (41%)* N (%)
- Subjects with >75% Decrease in M/S Headache days (chronic migraine; 675/225 mg group, Month 1): 19 (22%)** N (%)
- Subjects with >50% Decrease in M/S Headache days (chronic migraine; 675/225 mg group, Month 2): 42 (48%) N (%)
- Subjects with >75% Decrease in M/S Headache days (chronic migraine; 675/225 mg group, Month 2): 26 (30%)* N (%)
- Subjects with >50% Decrease in M/S Headache days (chronic migraine; 675/225 mg group, Month 3): 46 (53%)** N (%)
- Subjects with >75% Decrease in M/S Headache days (chronic migraine; 675/225 mg group, Month 3): 25 (29%)* N (%)
- Average number of headache hours at visits 2, 3 and 4 (chronic migraine; both treatment groups vs placebo): significant decrease
- number of headache hours in subjects using prevention medications (chronic migraine; e.g. topiramate and amitriptyline or propranolol, relative to a placebo group): significant decrease

- α-rat koff (rat α-CGRP): 0.0176 s⁻¹
B1: M84: G1 variant: L1 R28N T30V; L2 A51H L56T; H2 E54N A57N; HC-FW3 L99T A100V (antibody, V domains shown)
VH: EVQLVESGGGLVQPGGSLRLSCAASGFTFSNYWISWVRQAPGKGLEWVAEIRSNSDNSATHYAEAVKGRFTISRDNAKNSLYLQMNSLRAEDTAVYYCTVYFDYGLAIQNYWGQGTLVTVSS
VL: EIVLTQSPATLSLSPGERATLSCKASKNVVTYVSWYQQKPGQAPRLLIYGHSNRYTGIPARFSGSGSGTDFTLTISSLEPEDFAVYYCSQSYNYPYTFGQGTKLEIK
